Laboratory results: article PMC11865982, “Structure–Activity Relationships and Biological Insights into PSMA-617 and Its Derivatives with Modified Lipophilic Linker Regions” (ACS Omega, 2025)

Key:
[1] = linker amino acid building block; source not stated; cited from earlier work
[2] = target: T1, recombinant human PSMA (Homo sapiens, UniProt Q04609); test: HPLC-based PSMA enzyme inhibition assay with fluorescein-γ-Glu-Glu substrate; assay type: biochemical; details: 20 pM recombinant human PSMA, 100 nM substrate, 37 °C; average ± SD (n = 3)
T1 construct: extracellular part of human PSMA (amino acids 44–750); made in house; host or cells: Drosophila Schneider's S2 cells (secreted into conditioned medium)
T1 sequence (Q04609 44-750): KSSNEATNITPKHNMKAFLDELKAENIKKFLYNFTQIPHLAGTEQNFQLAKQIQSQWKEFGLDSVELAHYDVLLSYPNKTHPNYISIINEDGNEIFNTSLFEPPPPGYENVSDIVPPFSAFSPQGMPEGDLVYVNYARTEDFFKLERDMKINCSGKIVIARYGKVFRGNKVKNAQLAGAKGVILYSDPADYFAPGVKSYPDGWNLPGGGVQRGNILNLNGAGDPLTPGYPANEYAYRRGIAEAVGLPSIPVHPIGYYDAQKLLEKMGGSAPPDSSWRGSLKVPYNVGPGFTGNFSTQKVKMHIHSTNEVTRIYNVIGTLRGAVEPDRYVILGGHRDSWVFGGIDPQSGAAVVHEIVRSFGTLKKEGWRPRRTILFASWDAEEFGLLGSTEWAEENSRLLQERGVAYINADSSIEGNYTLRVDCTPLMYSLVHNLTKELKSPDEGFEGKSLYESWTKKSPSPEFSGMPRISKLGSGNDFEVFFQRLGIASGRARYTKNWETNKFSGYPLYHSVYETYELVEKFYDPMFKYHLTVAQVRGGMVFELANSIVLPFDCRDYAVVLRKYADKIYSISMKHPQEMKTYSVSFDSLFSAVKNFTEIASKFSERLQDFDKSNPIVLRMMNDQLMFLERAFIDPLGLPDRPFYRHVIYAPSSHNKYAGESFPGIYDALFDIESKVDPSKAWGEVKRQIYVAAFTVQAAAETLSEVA
Method: The potency of the studied inhibitors against recombinant human PSMA was determined in vitro using an HPLC-based assay with fluorescein−γ-Glu–Glu as the substrate.[11]
Expression and purification of the extracellular part of human PSMA (amino acids 44–750) were performed essentially as described previously.[27] Briefly, the N-terminally tagged PSMA fusion was overexpressed in Schneider’s S2 cells and the conditioned medium concentrated and dialyzed by tangential flow filtration (Millipore, Mosheim, France).
The inhibitory potency was determined using a fluorescence-based assay described previously.[11] Briefly, 20 pM recombinant human PSMA was preincubated with a 3-fold dilution series of inhibitors in 50 mM Tris.HCl, 150 mM NaCl, and 0.001% C12 E8 for 10 min at 37 °C. The reaction was initiated by the addition of 100 nM substrate in a total volume 50 μL. Following 15 min incubation at 37 °C, the reaction was stopped by the addition of 50 μL of 0.1% TFA in 5% ACN. Reaction mixtures were analyzed by RP-HPLC (Shimadzu, HPLC Prominence system) equipped with a Kinetex 2.6 μm XB-C18 100 Å column and a fluorescence detector (λEX/λEM = 492/516). HPLC separation was performed using a linear solvent gradient over 11 min from 20 to 50% of eluent B (0.1% (v/v) TFA in ACN) at a flow rate of 0.6 mL/min. The mobile phase A was 0.1% (v/v) TFA in water. The noninhibited reaction was assigned 100% and the reaction without enzyme present was defined as 0%. Data were fitted using a nonlinear regression algorithm (GraphPad Prism Software, version 8) to calculate IC50 values from the inhibition curves. Three independent assays were performed for each compound.

[3] = Stability in DMSO solution by 1H NMR; assay type: physicochemical; details: several days
Method: Characterization of the compounds was conducted extensively by one-dimensional (1D) ^1H, ^13C, and ^15N NMR (Figures S10–S15) and two-dimensional (2D) spectra, viz. COSY, HSQC, and HMBC (Figures S16–S21). Previous assignments of analogous compounds[5] were also used to provide unequivocal assignment of the ^1H, ^13C, and ^15N signals except for the DOTA macrocyclic ring assignments which could not be effected with certitude due to dynamic effects causing severe line broadening and thereby precluding correlations in the 2D spectra pertinent to the DOTA ring. The dynamic effects arising from the slow motional averaging of the DOTA ring on the NMR time scale leading to severe broadening of the signals of the DOTA ring were alleviated for the ^13C signals by the acquisition of spectra at lower field. Indeed, not all of the signals of the DOTA ring could be observed in the case of ^15N, unequivocally assigned in the case of ^13C, or uniquely discerned in the case of ^1H. However, all other signals though were able to be fully assigned and the spectra were otherwise fully consistent with the proposed structures and for both P17 and P18 the assigned structures were confirmed in terms of proton count, carbon count, and carbon multiplicities. […]

[4] = target: T2, PSMA-positive LNCaP cell line (Homo sapiens, UniProt Q04609); test: Competitive cell-binding affinity assay against [177Lu]Lu-PSMA-617, LNCaP; details: competition with 0.75 nM [177Lu]Lu-PSMA-617, 45 min RT; average ± SD (n = 3)
T2 construct: native LNCaP and LNCaP-derived C4-2 cell lines; host or cells: LNCaP
T2 sequence (Q04609 whole entry): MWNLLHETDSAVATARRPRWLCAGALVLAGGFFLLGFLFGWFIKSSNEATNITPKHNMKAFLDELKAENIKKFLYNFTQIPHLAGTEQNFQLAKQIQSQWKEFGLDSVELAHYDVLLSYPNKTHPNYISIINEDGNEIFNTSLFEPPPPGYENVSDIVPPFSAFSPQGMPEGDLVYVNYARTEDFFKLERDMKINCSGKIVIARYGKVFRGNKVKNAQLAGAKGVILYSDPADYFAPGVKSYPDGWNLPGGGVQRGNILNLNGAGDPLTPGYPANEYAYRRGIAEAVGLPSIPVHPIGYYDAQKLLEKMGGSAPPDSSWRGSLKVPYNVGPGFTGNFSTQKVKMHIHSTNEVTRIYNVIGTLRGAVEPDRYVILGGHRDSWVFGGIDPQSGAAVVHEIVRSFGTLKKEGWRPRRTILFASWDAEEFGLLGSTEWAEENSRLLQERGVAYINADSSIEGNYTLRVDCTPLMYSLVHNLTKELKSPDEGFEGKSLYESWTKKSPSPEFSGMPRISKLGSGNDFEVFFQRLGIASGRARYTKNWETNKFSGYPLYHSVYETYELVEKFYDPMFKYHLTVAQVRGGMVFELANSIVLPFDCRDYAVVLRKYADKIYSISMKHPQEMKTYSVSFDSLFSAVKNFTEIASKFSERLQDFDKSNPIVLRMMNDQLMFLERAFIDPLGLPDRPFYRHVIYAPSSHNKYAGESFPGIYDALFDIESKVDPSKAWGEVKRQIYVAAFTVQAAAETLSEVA
Method: (§1) To validate the IC50 values determined by the in vitro enzymatic assay, the PSMA-expressing cell line LNCaP, its daughter cell line C4-2, and the PSMA-overexpressing cell line PC-3 PIP were utilized to compare the cell-binding affinities of P17 and P18 to PSMA-617. The IC50 values of P17 and P18 were assessed by competitive binding against [^177Lu]Lu-PSMA-617. […] For the transfected cell line PC-3 PIP, the IC50 values for all three compounds were determined to be approximately 10-fold higher.
(§2) Cell culture media and supplements were purchased from PAN Biotech if not stated otherwise. In vitro assays were performed using the sublines of the androgen-independent PC3 human PCa cell line, PSMA-positive (PSMA+) PC3-PIP and PSMA-negative (PSMA−) PC3-flu cells, purchased from Johns Hopkins University (Baltimore, […], USA). Both cell lines were housed in a humidified atmosphere of 5% CO2 at 37 °C and cultured in RPMI-1640 medium supplemented with 10% fetal calf serum (FCS), 1% L-glutamine (L-Gln), and puromycin (2 μg/mL). In addition, cell-binding affinity assays were also performed on PSMA + LNCaP (ATCC CRL-1740) and C4-2 (ATCC CRL-3314) cell lines. LNCaP was derived from a human lymph node metastatic lesion of PCa while C4-2 was isolated from an LNCaP-based tumor xenograft of an androgen-depleted mouse. Both cell lines were cultured as described above but in the absence of puromycin. Routine cell culture was performed twice a week at RT using phosphate-buffered saline (PBS, pH 7.4) for washing and 0.05% trypsin for cell detachment.
(§3) The binding affinities of PSMA-617, P17, and P18 were determined using a competitive assay with [^177Lu]Lu-PSMA-617. All three compounds were incubated at 12 different concentrations (0, 0.5, 1, 2.5, 5, 10, 25, 50, 100, 500, 1,000, and 5000 nM) with 0.75 nM [^177Lu]Lu-PSMA-617 on either PSMA + cell lines PC3-PIP, LNCaP, or C4-2 or the PSMA– cell line PC3-flu plated at a concentration of 10^6 cells/well. After 45 min incubation at RT, the radioligand was removed and cells washed twice with 100 μL and once with 200 μL ice-cold PBS. […]

[5] = target: T3, PSMA-positive C4-2 cell line (Homo sapiens, UniProt Q04609); test: Competitive cell-binding affinity assay against [177Lu]Lu-PSMA-617, C4-2; details: competition with 0.75 nM [177Lu]Lu-PSMA-617, 45 min RT; average ± SD (n = 3)
T3 construct: native LNCaP and LNCaP-derived C4-2 cell lines; host or cells: C4-2
T3 sequence (Q04609 whole entry): as above
Method: as §1, §2, §3

[6] = target: T4, PSMA-overexpressing PC-3 PIP cell line (Homo sapiens, UniProt Q04609); test: Competitive cell-binding affinity assay against [177Lu]Lu-PSMA-617, PC3-PIP; details: competition with 0.75 nM [177Lu]Lu-PSMA-617, 45 min RT; average ± SD (n = 3)
T4 construct: host or cells: PC3-PIP (subline of the human PC3 prostate cancer line)
T4 sequence (Q04609 whole entry): as above
Method: as §1, §2, §3

[7] = tested on: PC3-PIP cells; test: Cellular internalization assay; assay type: cell-based, human; details: 30 nM radioligand, 45 min 37 °C, average ± SD (n = 3)
Method: To further characterize P17 and P18, internalization assays were conducted to determine whether the structural modifications of the linker have an impact on the uptake of the inhibitor–enzyme complex into the cell, which is critical for efficient retention in vivo.
as §2
Cells (10^5 cells/well) were seeded in poly-L-lysine (PLL)-coated plates 24 h before the experiment. […] Another set of cells was treated analogically while the PSMA-inhibitor 2-(phosphonomethyl)pentane-1,5-dioic acid (2-PMPA; 100 mM, […]) was added in order to subtract the nonspecific binding. The respective radioligand was removed and cells were washed three times with 1 mL ice-cold PBS and the surface-bound radioactivity detached by incubating the cells twice with 500 μL glycine buffer (50 mM, pH 2.8) for 5 min. After washing the cells once with 1 mL ice-cold PBS, the internalized fraction was determined by subsequent cells lysis with 500 μL NaOH (0.3 M, pH 14). […] Three independent assays were performed.

[8] = n-Octanol/PBS distribution coefficient; assay type: physicochemical; details: n-octanol/PBS pH 7.4

SMILES	IC50 [2] [nM]	IC50 [4] [nM]	IC50 [5] [nM]	IC50 [6] [nM]	internalized [7] [% AA]	total binding [7] [% AA]	log D [8]	also measured
N[C@@H](Cc1ccc2ccccc2c1)C(=O)O [2-naphthyl-L-Ala]								log Kow [1]: > 3
N[C@@H](CC=Cc1ccccc1)C(=O)O [3-styryl-L-Ala]								log Kow [1]: < 3
O=C(O)CC[C@H](NC(=O)N[C@@H](CCCCNC(=O)[C@H](C/C=C/c1ccccc1)NC(=O)[C@H]1CC[C@H](CNC(=O)CN2CCN(CC(=O)O)CCN(CC(=O)O)CCN(CC(=O)O)CC2)CC1)C(=O)O)C(=O)O [P17]	0.3 ± 0.04	12.9 ± 0.4	15.5 ± 2.5	150 ± 30				stability in DMSO solution [3]: no sign of decomposition after several days
O=C(O)CC[C@H](NC(=O)N[C@@H](CCCCNC(=O)[C@H](C/C=C/c1ccccc1)NC(=O)c1ccc(CNC(=O)CN2CCN(CC(=O)O)CCN(CC(=O)O)CCN(CC(=O)O)CC2)cc1)C(=O)O)C(=O)O [P18]	0.45 ± 0.09	11.2 ± 4.8	9.5 ± 3	111 ± 9				stability in DMSO solution [3]: no sign of decomposition after several days
O=C(O)CC[C@H](NC(=O)N[C@@H](CCCCNC(=O)[C@H](Cc1ccc2ccccc2c1)NC(=O)[C@H]1CC[C@H](CNC(=O)CN2CCN(CC(=O)O)CCN(CC(=O)O)CCN(CC(=O)O)CC2)CC1)C(=O)O)C(=O)O [PSMA-617]	0.05 ± 0.03	6.9 ± 2.2	4.9 ± 0.9	71 ± 8				
O=C([O-])CN1CCN(CC(=O)[O-])CCN(CC(=O)NC[C@H]2CC[C@H](C(=O)N[C@@H](C/C=C/c3ccccc3)C(=O)NCCCC[C@H](NC(=O)N[C@@H](CCC(=O)O)C(=O)O)C(=O)O)CC2)CCN(CC(=O)[O-])CC1.[177Lu+3] [[^177Lu]Lu-P17]					8.5 ± 2.4	20.1 ± 9.8	−3.36 ± 0.05	
O=C([O-])CN1CCN(CC(=O)[O-])CCN(CC(=O)NCc2ccc(C(=O)N[C@@H](C/C=C/c3ccccc3)C(=O)NCCCC[C@H](NC(=O)N[C@@H](CCC(=O)O)C(=O)O)C(=O)O)cc2)CCN(CC(=O)[O-])CC1.[177Lu+3] [[^177Lu]Lu-P18]					8.7 ± 2.9	33.7 ± 12.8	−3.35 ± 0.04	
O=C([O-])CN1CCN(CC(=O)[O-])CCN(CC(=O)NC[C@H]2CC[C@H](C(=O)N[C@@H](Cc3ccc4ccccc4c3)C(=O)NCCCC[C@H](NC(=O)N[C@@H](CCC(=O)O)C(=O)O)C(=O)O)CC2)CCN(CC(=O)[O-])CC1.[177Lu+3] [[^177Lu]Lu-PSMA-617, reference compound]					8.2 ± 2.4	26.8 ± 14.2	−3.27 ± 0.05	
